Earlier results, collected in patent publication US9085793B2, “Ex vivo methods to identify circulating drug metabolites with drug interaction potential” (XPD Consulting, LLC, priority 2012, dated 2015).
Where two headings read alike, the source gives them in different places.

How the values were obtained:
CYP2D6 [1] = target: T1, CYP2D6 (Homo sapiens, UniProt P10635); conditions: CYP 2D6; for IPM/IPP: in vivo inhibitory potential of metabolite over that of parent drug; for Ki: read-out: Ki Metabolite, metabolite
CYP2C9 [2] = target: T2, CYP2C9 (Homo sapiens, UniProt P11712)
CYP3A [3] = conditions: CYP 3A; in vivo inhibitory potential of metabolite over that of parent drug
CYP3A [4] = test system: T3, CYP3A; conditions: CYP 3A; metabolite
T3 construct: rows headed: Ki Parent Drug (P); other: CYP 3A; parent drug; Ki Metabolite (M); metabolite; [I]/Ki Parent Drug (P); [I]/Ki Metabolite (M)

CYP2C9 [5] = target: T2, CYP2C9; remark: listed apart in the source
CYP3A4 = CYP3A4 (Homo sapiens, UniProt P08684); conditions: human hepatocytes
[6] = in vivo
CYP2C9 [7] = target: T2, CYP2C9; conditions: read-out: Ki Metabolite, CYP 2C9
CYP2D6 [8] = target: T1, CYP2D6; conditions: human liver microsomes
CYP2D6 [9] = target: T1, CYP2D6; conditions: human hepatocytes
[10] = circulating plasma level (in vivo concentration) of metabolite

Chain of CYP3A4 (P08684 whole entry): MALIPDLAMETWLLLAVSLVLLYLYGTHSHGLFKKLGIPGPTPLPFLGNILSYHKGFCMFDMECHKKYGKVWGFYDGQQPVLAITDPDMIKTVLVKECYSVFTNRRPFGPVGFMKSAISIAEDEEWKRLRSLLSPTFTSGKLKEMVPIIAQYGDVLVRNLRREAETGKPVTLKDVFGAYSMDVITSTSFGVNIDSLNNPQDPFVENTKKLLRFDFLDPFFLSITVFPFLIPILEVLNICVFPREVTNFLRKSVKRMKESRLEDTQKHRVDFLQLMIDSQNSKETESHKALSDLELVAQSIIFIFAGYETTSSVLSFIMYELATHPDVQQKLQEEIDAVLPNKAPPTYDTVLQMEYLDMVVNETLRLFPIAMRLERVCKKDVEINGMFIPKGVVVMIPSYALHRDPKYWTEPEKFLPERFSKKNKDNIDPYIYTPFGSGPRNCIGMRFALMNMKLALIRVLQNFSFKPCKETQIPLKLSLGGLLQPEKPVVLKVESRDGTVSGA
T2 sequence (P11712 whole entry): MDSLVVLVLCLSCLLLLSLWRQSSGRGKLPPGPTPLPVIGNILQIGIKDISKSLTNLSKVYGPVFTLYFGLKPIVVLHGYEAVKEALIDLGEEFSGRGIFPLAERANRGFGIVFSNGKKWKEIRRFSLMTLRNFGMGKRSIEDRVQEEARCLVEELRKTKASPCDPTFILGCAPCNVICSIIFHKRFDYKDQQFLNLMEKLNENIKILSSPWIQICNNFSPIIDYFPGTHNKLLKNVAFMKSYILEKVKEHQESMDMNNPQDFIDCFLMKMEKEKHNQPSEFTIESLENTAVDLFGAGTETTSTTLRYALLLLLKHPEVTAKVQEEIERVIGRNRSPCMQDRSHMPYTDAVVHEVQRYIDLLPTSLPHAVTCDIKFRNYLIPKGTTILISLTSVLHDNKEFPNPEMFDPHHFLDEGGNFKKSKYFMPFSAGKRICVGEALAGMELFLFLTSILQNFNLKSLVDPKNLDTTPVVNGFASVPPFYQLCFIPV
T1 sequence (P10635 whole entry): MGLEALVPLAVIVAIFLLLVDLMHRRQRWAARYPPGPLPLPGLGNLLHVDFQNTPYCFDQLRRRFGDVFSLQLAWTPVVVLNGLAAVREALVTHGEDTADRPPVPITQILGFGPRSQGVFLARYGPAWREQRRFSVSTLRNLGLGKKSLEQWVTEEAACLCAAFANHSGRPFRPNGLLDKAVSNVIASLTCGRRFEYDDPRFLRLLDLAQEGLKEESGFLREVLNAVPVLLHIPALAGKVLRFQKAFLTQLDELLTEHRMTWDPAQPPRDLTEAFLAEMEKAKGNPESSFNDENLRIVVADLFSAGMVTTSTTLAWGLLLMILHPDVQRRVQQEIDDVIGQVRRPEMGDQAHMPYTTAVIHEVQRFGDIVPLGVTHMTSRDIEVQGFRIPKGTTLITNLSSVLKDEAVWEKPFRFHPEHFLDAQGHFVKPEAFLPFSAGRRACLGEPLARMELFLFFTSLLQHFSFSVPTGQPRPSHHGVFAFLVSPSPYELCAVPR

## CNCCCN1c2ccccc2CCc2ccc(Cl)cc21 [N-Desmethylclomipramine]
In vivo
  [I] Metabolite (M): 4.9e-07 M
CYP2D6 [1]
  IPM/IPP: 4.2
  Ki: 7.9 µM

## O=C(O)Cc1ccccc1Nc1c(Cl)cccc1Cl [Diclofenac]
CYP2C9 [2]
  Increase in Km on adding plasma (in words, FIG. 6): relatively large increase in Km
  Increase in Km on addition of plasma: more than 40 fold

## Cc1nc2n(c(=O)c1CCN1CCC(c3noc4cc(F)ccc34)CC1)CCCC2O (centres unmarked) [Paliperidone]
CYP3A [3]
  IPM/IPP: 2.0
CYP3A [4]
  Ki: 80 µM
[10]
  [I] Metabolite (M): 4.6e-08 M
CYP2D6 [1]
  IPM/IPP: 1.0
  Ki: 16 µM

## CC(C)c1c(C(=O)Nc2ccccc2)c(-c2ccccc2)c(-c2ccc(F)cc2)n1CC[C@@H]1C[C@@H](O)CC(=O)O1 [Atorvastatin lactone]
CYP3A [3]
  IPM/IPP: 5.5
CYP3A [4]
  Ki: 0.9 µM
[10]
  [I] Metabolite (M): 3e-09 M

## Nc1ccc(S(=O)(=O)Nc2ccnn2-c2ccccc2)cc1 [Sulfaphenazole]
CYP2C9 [5]; addition of plasma to human hepatocytes or human liver microsomes
  IC50 increased on addition of plasma: more than 10 fold

## Cc1ncc2n1-c1ccc(Cl)cc1C(c1ccccc1F)=NC2 [Midazolam]
CYP3A4; plasma versus medium
  Increase in Km: 5.7 fold
CYP3A4; read-out: Km Medium, cell culture medium (HMM)
  Km: 8.11 ± 0.65 µM
CYP3A4; read-out: Km Plasma, human plasma
  Km: 45.8 ± 4.38 µM

## C[C@H](NC(C)(C)C)[C@@H](O)c1cccc(Cl)c1 [Threobupropion]
[10]
  [I] Metabolite (M): 1.9e-06 M
CYP2D6 [1]
  IPM/IPP: 24.8
  Ki: 5.4 µM

## CC(NC(C)(C)C)C(O)c1cccc(Cl)c1 (centres unmarked) [Erythrobupropion]
[10]
  [I] Metabolite (M): 3.7e-07 M
CYP2D6 [1]
  IPM/IPP: 15.3
  Ki: 1.7 µM

## NCCC(Oc1ccc(C(F)(F)F)cc1)c1ccccc1 (centres unmarked) [Norfluoxetine]
[6]
  Plasma half-life: about 16 days
CYP2D6 [1]
  Ki: 0.2 µM

## O=C1C(CCSc2ccccc2)C(=O)N(c2ccccc2)N1c1ccccc1 [Sulfinpyrazone sulfide]
CYP2C9 [7]
  Ki: 27 µM

## OC(CCCN1CCC(O)(c2ccc(Cl)cc2)CC1)c1ccc(F)cc1 (centres unmarked) [Reduced haloperidol]
[10]
  [I] Metabolite (M): 8e-09 M
CYP2D6 [1]
  IPM/IPP: 1.3
  Ki: 0.24 µM

## C[C@H]1NC(C)(C)CO[C@]1(O)c1cccc(Cl)c1 [Hydroxybupropion]
[10]
  [I] Metabolite (M): 3.2e-06 M
CYP2D6 [1]
  IPM/IPP: 17.0
  Ki: 13 µM

## CNCC(c1ccc(OC)cc1)C1(O)CCCCC1 (centres unmarked) [N-Desmethylvenlafaxine]
In vivo
  [I] Metabolite (M): 9.3e-07 M

## Clc1ccc(COC(Cn2ccnc2)c2ccc(Cl)cc2Cl)c(Cl)c1 (centres unmarked) [Miconazole]
CYP2C9 [5]
  IC50: 2.02 ± 0.37 µM
CYP2C9 [5]; hepatocytes
  IC50: 2.12 ± 0.37 µM

## CCCCc1oc2ccccc2c1C(=O)c1cc(I)c(OCCNCC)c(I)c1 [N-Desethylamiodarone]
In vivo
  [I] Metabolite (M): 1.5e-06 M

## CCNCc1cc(Nc2ccnc3cc(Cl)ccc23)ccc1O [Desethylamodiaquine]
[10]
  [I] Metabolite (M): 8.2e-07 M
CYP2D6 [1]
  IPM/IPP: 5.1
  Ki: 4.1 µM

## CNCCC(Oc1ccc(C(F)(F)F)cc1)c1ccccc1 (centres unmarked) [Fluoxetine]
[6]
  Plasma half-life: 96 to 140 h

## COc1ccc2c(c1)[C@]13CCCC[C@@H]1[C@H](C2)N(C)CC3 [dextromethorphan]
CYP2D6 [8]
  Increase in Km on adding plasma (in words, FIG. 6): relatively small increase in Km
  Increase in Km on addition of plasma: less than six

## CN[C@H]1CC[C@@H](c2ccc(Cl)c(Cl)c2)c2ccccc21 [Sertraline]
CYP2D6 [9]; human plasma, read-out: IC50 Plasma
  IC50: 13.1 ± 3.49 µM
CYP2D6 [9]; medium, read-out: IC50 Medium
  IC50: 3.1 ± 0.34 µM
